Series [1] concerns Cyp1a2 mRNA in liver. In words: Cyp1a2 gene expression in liver (real-time PCR). The class given is in vivo, female C57BL/6 mice. Particulars: for BMR20TCDD Liver Cyp1a2 mRNA: 3 days after single oral dose; for REP Liver Cyp1a2 mRNA: relative to TCDD. As for the experimental part: Animals. Eight-week-old female C57BL/6 mice (Harlan laboratories, Venray, the Netherlands) were randomly assigned to treatment groups (six animals per group) and allowed to acclimate for 1.5 weeks. The animals were housed in groups in standard cages and conditions (23 ± 2°C, 50–60% relative humidity, 12-hr dark/light cycle) with free access to food and water. Mice received a single dose of test compound by oral gavage at a dosing volume of 10 mL/kg body weight (BW). Mice treated with corn oil vehicle (10 mL/kg BW) served as controls. For each congener, five different doses were administered, ranging from 0.5–100 μg/kg BW (TCDD) to 5,000–500,000 µg/kg BW (PCB-153). Detailed information on doses is provided in Supplemental Material, Table S1 (http://dx.doi.org/10.1289/ehp.1206336). On day 3 after dosing, animals were euthanized by CO2/O2 asphyxiation, and blood was immediately collected from the abdominal aorta. The liver, thymus, spleen, and adipose tissue were removed, weighed (liver, thymus, and spleen), snap frozen, and stored at –80°C. All animal treatments were performed with permission of the Animal Ethical Committee (DEC Utrecht) and performed according to the [Law on Animal Experiments (1977)]. Animals were treated humanely and with regard for alleviation of suffering.
RNA isolation and quantitative real-time polymerase chain reaction (PCR). Total RNA was isolated from liver and PBLs using a QIAGEN RNeasy kit (QIAGEN). Purity and concentration of the isolated RNA was determined by measuring the absorbance ratio at 260/280 nm and 230/260 nm with a Nanodrop 2000 spectrophotometer (Thermo Scientific, Asheville, NC, USA). RNA was reverse transcribed to complementary DNA (cDNA) using the iScript cDNA synthesis Kit (Bio-Rad, Veenendaal, the Netherlands). Quantitative real-time PCR analyses were performed using the iQ Real-Time PCR Detection System with SYBR green (Bio-Rad). Amplification reactions were set up with […] containing 12.5 μL iQ SYBR Green Supermix (Bio-rad), 0.5 μL distilled H2O, 1 μL (10 μM) forward primer, 1 μL (10 μM) reverse primer, and 10 μL first strand cDNA (10X diluted). Primer sequences were as follows: Cyp1a1: forward-5´-GGTTAACCATGACCGGGAACT-3´ and reverse-5´-TGCCCAAACCAAAGAGAGTGA-3´ ([Schulz et al. 2012]); Cyp1a2: forward-5´-ACATTCCCAAGGAGCGCTGTATCT-3´ and reverse-5´-GTCGATGGCCGAGTTGTTATTGGT-3´ ([Flaveny et al. 2010]); Cyp1b1: forward-5´-GTGGCTGCTCATCCTCTTTACC-3´ and reverse-5´-CCCACAACCTGGTCCAACTC-3´ ([Berge et al. 2004]); β-actin: forward-5´-ATGCTCCCCGGGCTGTAT-3´ and reverse-5´-CATAGGAGTCCTTCTGACCCATTC-3´ ([Schulz et al. 2012]). All primers were run through the National Center for Biotechnology Information Primer-BLAST database (http://www.ncbi.nlm.nih.gov/tools/primer-blast/) to confirm specificity and validate for optimal annealing temperature (60°C for all primers) and efficiency. The efficiency of all primer pairs was 98–102% (tested at 60°C). The following program was used for denaturation and amplification of cDNA: 3 min at 95°C, followed by 40 cycles of 15 sec at 95°C and 45 sec at 60°C. Gene expression for each sample was expressed as threshold cycle (Ct), normalized to the reference gene β-actin (ΔCt). We calculated fold induction relative to the control group.
Data analysis. We obtained concentration–response curves using a sigmoidal dose–response nonlinear regression curve fit with variable slope (GraphPad Prism 6.01; GraphPad Software Inc., San Diego, CA, USA):
In this Hill equation, y is the dependent variable (EROD activity or fold induction of mRNA levels), x the independent variable (administered or systemic dose), E0 is the estimated background response level, Emax is the maximum response, b is the estimated median effective concentration (EC50), and n is the shaping parameter of the Hill curve.
Using the congener-specific BMR20TCDD concentration, REPs were calculated relatively to TCDD: […]

For series [2] the following is noted: toxic equivalency factor relative to TCDD; ref Van den Berg et al. 2006; cited from earlier work.
The mark [3] stands for this setting: dose metric Adm dose (µg/kg BW).
Where [4] appears, read: dose metric Syst adipose (ng/g lipid).
Setting [5] is: dose metric Syst liver (ng/g lipid).
Where [6] appears, read: dose metric Syst liver (ng/g liver).
The mark [7] stands for this setting: dose metric Syst plasma (ng/g lipid).

In the case of `Clc1cc2oc3c(Cl)c(Cl)c(Cl)cc3c2cc1Cl` [Congener 4-PeCDF, 2,3,4,7,8-pentachlorodibenzofuran], the “BMR20TCDD Liver Cyp1a2 mRNA” value in series [1] (dose metric Adm dose) came to 8.83 µg/kg BW; in series [1] (dose metric Syst adipose), 6.53 ng/g lipid; in series [1] (dose metric Syst plasma) it was 8.01 ng/g lipid. The “REP Liver Cyp1a2 mRNA” value was determined as 0.05 in series [1] (setting [3]); 0.3 in series [1] (setting [4]); 0.03 in series [1] (setting [5]); 0.04 in series [1] (setting [6]); 0.2 in series [1] (setting [7]). Further, the WHO-TEF in series [2] is on record as 0.3.

Regarding `Clc1ccc(-c2cc(Cl)c(Cl)cc2Cl)cc1Cl` [PCB-118, 2,3´,4,4´,5-pentachlorobiphenyl], the entries for the “BMR20TCDD Liver Cyp1a2 mRNA” value in series [1] (dose metric Adm dose), in series [1] (dose metric Syst adipose) and in series [1] (dose metric Syst plasma) were 15,522 µg/kg BW, 117,517 ng/g lipid and 103,230 ng/g lipid, respectively. The “REP Liver Cyp1a2 mRNA” value in series [1] (setting [3]) was 0.00003; in series [1] (setting [4]) it was 0.00001; in series [1] (setting [5]), 0.0002; in series [1] (setting [6]), 0.0003; in series [1] (setting [7]), 0.00002. The WHO-TEF in series [2] is 0.00003.

For `Clc1ccc(-c2cc(Cl)c(Cl)c(Cl)c2)cc1Cl` [PCB-126, 3,3´,4,4´,5-pentachlorobiphenyl], the results for the “BMR20TCDD Liver Cyp1a2 mRNA” value in series [1] (dose metric Adm dose), in series [1] (dose metric Syst adipose) and in series [1] (dose metric Syst plasma) were 87.4 µg/kg BW, 120 ng/g lipid and 135 ng/g lipid, respectively. Moreover, the “REP Liver Cyp1a2 mRNA” value was 0.005 in series [1] (setting [3]); 0.01 in series [1] (setting [4]); 0.002 in series [1] (setting [5]); 0.003 in series [1] (setting [6]); 0.01 in series [1] (setting [7]). Moreover, the WHO-TEF in series [2] is given as 0.1.

For `Clc1ccc(-c2cc(Cl)c(Cl)c(Cl)c2Cl)cc1Cl` [PCB-156, 2,3,3´,4,4´,5-hexachlorobiphenyl], the figures for the “BMR20TCDD Liver Cyp1a2 mRNA” value in series [1] (dose metric Adm dose), in series [1] (dose metric Syst adipose) and in series [1] (dose metric Syst plasma) were 12,085 µg/kg BW, 22,134 ng/g lipid and 60,702 ng/g lipid, respectively. The “REP Liver Cyp1a2 mRNA” value in series [1] (setting [3]) is given as 0.00003; in series [1] (setting [4]) it was 0.00008; in series [1] (setting [5]) it was 0.0003; in series [1] (setting [6]), 0.0006; in series [1] (setting [7]), 0.00003. The WHO-TEF in series [2] is on record as 0.00003.

`Clc1cc2c(cc1Cl)Oc1c(cc(Cl)c(Cl)c1Cl)O2` [PeCDD, 1,2,3,7,8-pentachlorodibenzodioxin]: the “BMR20TCDD Liver Cyp1a2 mRNA” value was 0.56 µg/kg BW in series [1] (dose metric Adm dose), 1.20 ng/g lipid in series [1] (dose metric Syst adipose) and 2.36 ng/g lipid in series [1] (dose metric Syst plasma). Moreover, the “REP Liver Cyp1a2 mRNA” value in series [1] (setting [3]) amounted to 0.7; in series [1] (setting [4]), 1; in series [1] (setting [5]), 0.5; in series [1] (setting [6]), 0.6; in series [1] (setting [7]) it was 0.8. Moreover, in series [2], the WHO-TEF was 1.

Turning to `Clc1cc2c(cc1Cl)Oc1cc(Cl)c(Cl)cc1O2` [TCDD, 2,3,7,8-tetrachlorodibenzodioxin, reference compound], the figures for the “BMR20TCDD Liver Cyp1a2 mRNA” value in series [1] (dose metric Adm dose), in series [1] (dose metric Syst adipose) and in series [1] (dose metric Syst plasma) were 0.41 µg/kg BW, 1.73 ng/g lipid and 1.85 ng/g lipid, respectively. Also, the “REP Liver Cyp1a2 mRNA” value in series [1] (setting [3]), in series [1] (setting [4]), in series [1] (setting [5]), in series [1] (setting [6]) and in series [1] (setting [7]) was 1 throughout. The WHO-TEF in series [2] is 1.

The record behind these values is publication PMC3702004, “Comparison of Intake and Systemic Relative Effect Potencies of Dioxin-like Compounds in Female Mice after a Single Oral Dose” (Environmental Health Perspectives, 2013).
